The source made the active and inactive calls.
Assays:
[1] = molecular target: T1, Short transient receptor potential channel 4 (Mus musculus, UniProt Q9QUQ5); test: calcium entry via TRPC4 opening agents – cell-based, HEK293 TRPC4/mu-opioid, Fluo-4 calcium, dose response (AID 434937); assay type: functional
T1 sequence (Q9QUQ5 whole entry): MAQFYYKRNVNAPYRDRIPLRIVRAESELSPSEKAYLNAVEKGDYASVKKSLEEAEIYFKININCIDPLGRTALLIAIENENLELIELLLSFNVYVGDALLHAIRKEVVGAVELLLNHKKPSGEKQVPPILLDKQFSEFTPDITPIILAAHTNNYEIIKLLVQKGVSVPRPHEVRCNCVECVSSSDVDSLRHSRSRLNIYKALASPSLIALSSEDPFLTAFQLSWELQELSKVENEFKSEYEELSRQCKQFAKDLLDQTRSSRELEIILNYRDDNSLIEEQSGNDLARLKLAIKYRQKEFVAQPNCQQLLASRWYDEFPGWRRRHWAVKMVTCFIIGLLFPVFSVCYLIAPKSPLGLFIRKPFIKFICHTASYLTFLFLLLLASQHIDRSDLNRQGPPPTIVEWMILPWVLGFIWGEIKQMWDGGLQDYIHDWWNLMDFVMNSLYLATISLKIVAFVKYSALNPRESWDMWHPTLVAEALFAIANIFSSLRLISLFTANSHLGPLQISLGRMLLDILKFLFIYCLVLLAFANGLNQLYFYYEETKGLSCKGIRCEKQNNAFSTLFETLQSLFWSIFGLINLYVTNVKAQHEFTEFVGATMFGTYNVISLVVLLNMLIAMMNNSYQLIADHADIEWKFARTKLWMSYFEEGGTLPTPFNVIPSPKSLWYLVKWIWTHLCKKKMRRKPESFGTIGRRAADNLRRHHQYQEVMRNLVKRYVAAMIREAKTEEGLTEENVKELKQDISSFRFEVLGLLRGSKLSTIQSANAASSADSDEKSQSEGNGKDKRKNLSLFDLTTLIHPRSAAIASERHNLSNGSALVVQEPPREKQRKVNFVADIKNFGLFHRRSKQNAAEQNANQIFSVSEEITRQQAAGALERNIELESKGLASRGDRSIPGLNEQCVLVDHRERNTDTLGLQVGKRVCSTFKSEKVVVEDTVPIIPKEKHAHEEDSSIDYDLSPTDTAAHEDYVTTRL

[2] = molecular target: T2, Corticotropin-releasing factor receptor 2/Corticotropin-releasing factor-binding protein (Homo sapiens, UniProt P24387+Q13324); test: activators of CRF receptor 2 with binding protein – uHTS hits, confirmation (AID 602473); assay type: functional; details: read-out: EC50_Mean
T2 sequence (Q13324 whole entry): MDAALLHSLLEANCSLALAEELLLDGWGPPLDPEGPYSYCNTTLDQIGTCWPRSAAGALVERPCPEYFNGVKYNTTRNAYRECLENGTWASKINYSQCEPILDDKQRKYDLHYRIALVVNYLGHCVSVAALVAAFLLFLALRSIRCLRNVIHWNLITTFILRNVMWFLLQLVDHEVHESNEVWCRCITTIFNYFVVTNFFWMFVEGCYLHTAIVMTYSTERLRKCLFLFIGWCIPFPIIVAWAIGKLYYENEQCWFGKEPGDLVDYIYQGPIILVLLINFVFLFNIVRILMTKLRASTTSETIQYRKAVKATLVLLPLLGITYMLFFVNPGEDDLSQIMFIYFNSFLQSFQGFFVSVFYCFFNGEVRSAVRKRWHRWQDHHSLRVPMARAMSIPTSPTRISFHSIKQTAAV
T2 sequence (P24387 whole entry): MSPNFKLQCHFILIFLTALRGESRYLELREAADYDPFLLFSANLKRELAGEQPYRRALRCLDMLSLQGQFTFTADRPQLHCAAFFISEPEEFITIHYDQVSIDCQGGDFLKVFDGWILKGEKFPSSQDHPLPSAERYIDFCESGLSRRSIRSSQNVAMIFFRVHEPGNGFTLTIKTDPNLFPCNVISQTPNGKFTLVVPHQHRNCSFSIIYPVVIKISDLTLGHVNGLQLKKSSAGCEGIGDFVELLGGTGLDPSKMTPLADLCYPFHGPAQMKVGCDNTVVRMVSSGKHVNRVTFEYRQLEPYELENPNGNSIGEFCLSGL

[3] = molecular target: T2, Corticotropin-releasing factor receptor 2/Corticotropin-releasing factor-binding protein; test: Dose Response confirmation of uHTS hits for small molecule antagonists of the CRF-binding protein and CRF-R2 receptor complex.; assay type: functional; details: read-out: IC50_Mean
[4] = molecular target: T3, Zinc finger protein mex-5 (Caenorhabditis elegans, UniProt Q9XUB2); test: potency of MEX-5 RNA-binding blockers – biochemical, C. elegans, fluorescence polarization, dose response (AID 1960)
T3 sequence (Q9XUB2 whole entry): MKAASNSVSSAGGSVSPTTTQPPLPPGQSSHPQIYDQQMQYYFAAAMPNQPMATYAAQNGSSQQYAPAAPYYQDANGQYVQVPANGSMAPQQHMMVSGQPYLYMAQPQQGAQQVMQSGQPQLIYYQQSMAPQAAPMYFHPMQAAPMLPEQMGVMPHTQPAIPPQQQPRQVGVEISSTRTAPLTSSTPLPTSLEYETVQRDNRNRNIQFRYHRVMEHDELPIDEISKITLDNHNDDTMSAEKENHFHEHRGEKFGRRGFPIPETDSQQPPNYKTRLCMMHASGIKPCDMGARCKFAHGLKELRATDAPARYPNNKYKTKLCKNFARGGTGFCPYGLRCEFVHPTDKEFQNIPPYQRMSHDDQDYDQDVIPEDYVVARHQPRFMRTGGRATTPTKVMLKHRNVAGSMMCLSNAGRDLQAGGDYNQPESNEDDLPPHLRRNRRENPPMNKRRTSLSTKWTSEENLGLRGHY

[5] = NIH3T3 cell viability loss – ATP luminescence, mouse fibroblasts, counter-screen, dose response (AID 2010); assay type: functional, cell-based;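 further: cells exposed to compound for about 90 hours before reading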
[6] = Trypanosoma cruzi growth suppression in host cells – NIH3T3 host cells, beta-gal luminescence, confirmation (AID 2044); assay type: functional, cell-based;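 further: intracellular parasites grown in NIH/3T3 mouse fibroblasts as host cells; luminescent beta-galactosidase reporter signal from transgenic T. cruzi replicating inside host cells; inhibitors lower the luminescence signal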
[7] = molecular target: T4, Ubiquitin-conjugating enzyme E2 N (Homo sapiens, UniProt P61088); assay type: functional;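 further: Dose-response confirmation in a TR-FRET assay detecting UBC13-driven polyubiquitin chain formation, inhibition measured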
T4 sequence (P61088 whole entry): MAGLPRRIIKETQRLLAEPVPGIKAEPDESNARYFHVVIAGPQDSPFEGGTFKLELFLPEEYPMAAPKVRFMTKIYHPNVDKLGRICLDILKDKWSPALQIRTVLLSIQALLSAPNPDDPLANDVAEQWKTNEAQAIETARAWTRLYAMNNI

[8] = molecular target: T5, RNA-binding protein pos-1 (Caenorhabditis elegans, UniProt G5EF15); test: disruptors of C. elegans POS-1 RNA interaction – biochemical, fluorescence polarization, dose response (AID 1964);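 further: purified POS-1 fused to maltose binding protein made in E. coli; potency of compounds blocking POS-1 binding to fluorescent RNA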
T5 sequence (G5EF15 whole entry): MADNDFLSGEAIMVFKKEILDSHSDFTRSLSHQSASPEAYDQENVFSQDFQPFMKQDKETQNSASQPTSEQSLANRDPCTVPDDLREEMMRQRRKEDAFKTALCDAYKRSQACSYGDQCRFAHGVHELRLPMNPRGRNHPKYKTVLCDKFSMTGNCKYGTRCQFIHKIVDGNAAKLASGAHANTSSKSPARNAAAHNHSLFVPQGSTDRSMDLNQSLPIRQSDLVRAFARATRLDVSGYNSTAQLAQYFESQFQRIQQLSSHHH

[9] = viability of HCT116 lacking mutant beta-catenin – cell-based, human colon tumor, dose response (AID 1045); assay type: functional;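 further: HCT116 colon tumor cells with beta catenin knocked out; cells exposed to compound for 60 hours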
[10] = viability of PTEN-deleted HCT116 cells – cell-based, HCT116 PTEN knockout, dose response (AID 1047); assay type: functional;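 further: HCT116 colon tumor cells with PTEN knocked out; cells exposed to compound for 60 hours before readout; potency for loss of cell viability measured by luminescence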
H4 = test: Luminescence Cell-Based Dose Response HTS to Identify Activators of 5'UTR Stem-Loop Driven Prion Protein mRNA Translation in H4 Neuroglioblastoma Cells. [Related pubchem assays: 1829 (Project Summary), 1814 (Primary HTS)]; assay type: functional; details: Homo sapiens
[11] = Luminescence Cell-Based Dose Confirmation HTS to Identify Activators of 5'UTR Stem-Loop Driven Alpha-Synuclein mRNA Translation in H4 Neuroglioblastoma Cells. [Related pubchem assays: 1829 (Project Summary), 1814 (Primary HTS)]; assay type: functional
[12] = Luminescence Cell-Based Dose Response HTS to Identify Activators of Luciferase Translation or Activity in H4 […] Cells. [Related pubchem assays: 1829 (Project Summary), 1814 (Primary HTS)]; assay type: functional
[13] = molecular target: Glyceraldehyde-3-phosphate dehydrogenase (Homo sapiens, UniProt P04406)
Sequence of Glyceraldehyde-3-phosphate dehydrogenase (P04406 whole entry): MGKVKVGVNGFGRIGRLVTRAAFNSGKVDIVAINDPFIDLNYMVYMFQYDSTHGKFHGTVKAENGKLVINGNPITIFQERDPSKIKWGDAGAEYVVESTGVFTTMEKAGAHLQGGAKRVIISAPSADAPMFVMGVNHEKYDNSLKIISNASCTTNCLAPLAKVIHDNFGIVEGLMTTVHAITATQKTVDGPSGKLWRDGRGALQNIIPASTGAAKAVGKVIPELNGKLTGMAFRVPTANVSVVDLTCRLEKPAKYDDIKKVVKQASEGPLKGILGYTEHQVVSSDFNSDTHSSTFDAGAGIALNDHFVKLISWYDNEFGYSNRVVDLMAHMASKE

[14] = Luminescence Cell-Based Dose Retest to Confirm Inhibitors of Cancer Stem Cells. [Related pubchem assays (depositor defined):AID2717, AID2721]; assay type: functional; details: Homo sapiens
Genome polyprotein = Genome polyprotein (dengue virus type 2, UniProt P29990); test: flavivirus cap methylation enzyme inhibition – biochemical, confirmation dose response, primary screen (AID 588689); assay type: functional
Sequence of Genome polyprotein (P29990 2492-3391 limits assumed): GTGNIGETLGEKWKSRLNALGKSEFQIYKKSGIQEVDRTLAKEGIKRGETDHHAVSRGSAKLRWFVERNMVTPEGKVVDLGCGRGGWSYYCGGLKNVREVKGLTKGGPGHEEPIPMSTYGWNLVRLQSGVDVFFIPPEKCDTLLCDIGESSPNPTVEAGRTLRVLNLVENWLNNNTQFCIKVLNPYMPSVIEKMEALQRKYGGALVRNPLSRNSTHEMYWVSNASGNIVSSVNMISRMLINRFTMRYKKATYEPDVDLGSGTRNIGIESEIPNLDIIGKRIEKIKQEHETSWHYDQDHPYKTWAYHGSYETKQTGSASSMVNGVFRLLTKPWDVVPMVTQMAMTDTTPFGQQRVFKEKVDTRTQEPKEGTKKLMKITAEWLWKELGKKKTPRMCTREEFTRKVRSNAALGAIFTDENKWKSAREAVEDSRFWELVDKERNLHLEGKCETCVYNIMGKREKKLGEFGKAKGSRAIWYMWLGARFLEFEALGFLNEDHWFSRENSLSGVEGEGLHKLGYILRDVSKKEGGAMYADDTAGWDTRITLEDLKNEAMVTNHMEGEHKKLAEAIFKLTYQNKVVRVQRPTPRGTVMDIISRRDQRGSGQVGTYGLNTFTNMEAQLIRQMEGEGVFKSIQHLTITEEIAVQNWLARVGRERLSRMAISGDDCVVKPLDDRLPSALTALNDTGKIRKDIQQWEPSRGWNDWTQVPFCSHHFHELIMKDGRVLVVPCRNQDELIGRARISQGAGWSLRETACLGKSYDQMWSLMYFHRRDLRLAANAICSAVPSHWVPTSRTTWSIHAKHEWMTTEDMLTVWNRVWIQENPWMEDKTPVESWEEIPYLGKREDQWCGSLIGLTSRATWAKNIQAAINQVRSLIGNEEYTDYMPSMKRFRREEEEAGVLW

Vero = test: viability of Vero cells under compound – cytotoxicity control for flavivirus capping enzyme inhibitors (AID 588742); assay type: functional; details: Chlorocebus sabaeus
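Wherever AC50 is given: cells exposed to compound for roughly 70 hours or longer before luminescence read.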

Compound: CN1CCN(Cc2nc3c(c(=O)[nH]c(=O)n3C)n2Cc2c(F)cccc2Cl)CC1
- EC50 [1]: 1.68 µM (active)

Compound: COC(=O)c1cc(OC)c(OC)cc1NC(=O)C(C)Sc1ccc(C)cc1 (stereo unspecified)
- EC50 [2]: > 53 µM (inactive)
- IC50 [3]: > 47.1 µM (inactive)

Compound: COc1cc(C(CCN2CCCC2)c2c(OC)cc(OC)c3c(-c4ccccc4)cc(=O)oc23)cc(OC)c1OC (stereo unspecified)
- EC50 [4]: > 300 µM (not active)
- EC50 [5]: 49.2 µM (active)
- EC50 [6]: 1.7 µM (active)
- IC50 [7]: > 20 µM (inactive)
- EC50 [8]: > 300 µM (not active)

Compound: CC1(C)CC2=NC3=C(C(=O)c4ccccc43)C(c3ccc(Cl)cc3)C2=C(O)C1 (stereo unspecified)
- EC50 [9]: 13.8 µM (active)
- IC50 [7]: > 20 µM (inactive)
- EC50 [10]: 13.1 µM (active)

Compound: COc1cccc(NC(=O)COC(=O)c2c(F)cccc2Cl)c1
- EC50 (H4): 20.2 µM (active)
- EC50 [11]: 66.8 µM (active)
- EC50 [12]: 16.1 µM (active)

Compound: NS(=O)(=O)c1ccc(NC(=O)COc2ccccc2)cc1
- IC50 [13]: > 100 µM (not active)

Compound: CC1CCC(NC(=O)C2CCN(c3c4c(nc5ncnn35)CCC4)CC2)CC1 (stereo unspecified)
- EC50 (H4): 22.3 µM (active)
- EC50 [11]: 48.6 µM (active)
- EC50 [12]: 64.8 µM (active)

Compound: CC(=O)c1ccc(NC(=O)CCc2nnc3ccc(N4CCC5(CC4)OCCO5)nn23)cc1
- EC50 [2]: > 53 µM (inactive)
- IC50 [3]: > 47.1 µM (inactive)

Compound: COc1ccc(NC(=O)C(Sc2ccccc2)c2ccccc2)c(OC)c1 (stereo unspecified)
- EC50 [2]: > 53 µM (inactive)
- IC50 [3]: > 47.1 µM (inactive)

Compound: c1ccc(CN2CCC(NC3=NN=C(c4ccc5c(c4)OCCO5)CS3)CC2)cc1
- EC50 (H4): 48.5 µM (active)
- EC50 [11]: 12.5 µM (active)
- EC50 [12]: > 120 µM (not active)

Compound: COc1ccc(-c2sc3ccccc3c2C#Cc2cncn2C)cc1
- AC50 [14]: 2.69 µM (active)
- IC50 [7]: > 20 µM (inactive)

Compound: CCCC(C(=O)NC(C)(C)C)N(Cc1ccccc1Cl)C(=O)c1snc(C(N)=O)c1N (stereo unspecified)
- IC50 [7]: > 20 µM (inactive)

Compound: CCC(C)/C=C(C)/C=C/C1=CC2=C(Cl)C(=O)C(C)(OC(C)=O)C(=O)C2=CO1 (stereo unspecified)
- EC50 [4]: > 300 µM (not active)
- EC50 (H4): > 120 µM (not active)
- EC50 [11]: > 120 µM (not active)
- IC50 (Genome polyprotein): 38 µM (active)
- EC50 [8]: > 300 µM (not active)
- EC50 [12]: > 120 µM (not active)
- CC50 (Vero): > 40 µM (active)

Compound: O=C(COc1cc(Cl)c(Cl)cc1Cl)NCCc1ccccn1
- EC50 [1]: 10.6 µM (active)

Compound: CCCCC(=O)NC(=S)NNC(=O)c1ccc(Cl)cc1Cl
- EC50 [2]: 6.56 µM (active)
- EC50 [1]: 5.31 µM (active)

Compound: NC(=O)C1CCCN(CC(O)COCc2ccc(Cl)cc2)C1 (stereo unspecified)
- EC50 [1]: 0.211 µM (active)

Compound: COc1cc(C(=O)Nc2cccc(S(=O)(=O)N3CCCC3)c2)cc(OC)c1C
- IC50 [7]: > 20 µM (inactive)

Compound: COc1ccccc1NC(=O)CSc1nnc(CNC(=O)c2ccco2)o1
- EC50 [2]: > 53 µM (inactive)
- IC50 [3]: > 47.1 µM (inactive)

Compound: Cc1cc(C)c(CN2CCN(Cc3ccc(C)o3)C(CCO)C2)c(-n2cccn2)c1 (stereo unspecified)
- EC50 [1]: 3.35 µM (active)

Compound: CN(C)C(CNC(=O)c1ccc2ccccc2n1)c1ccccc1 (stereo unspecified)
- EC50 [1]: 0.267 µM (active)

Compound: Cc1ccccc1Cn1c(CN2CCc3ccccc3C2)nc2c1c(=O)n(C)c(=O)n2C
- EC50 [1]: 5.96 µM (active)

Compound: O=C(Nc1cccc(S(=O)(=O)N2CCCCC2)c1)c1ccc(S(=O)(=O)C(F)F)cc1
- EC50 [2]: > 53 µM (inactive)
- IC50 [3]: > 47.1 µM (inactive)

Compound: Cc1c(Cl)cccc1N1C(=O)c2ccccc2C1=O
- EC50 [2]: > 53 µM (inactive)
- IC50 [3]: > 47.1 µM (inactive)

Compound: O=C1C(=Cc2ccncc2)CCCc2ccccc21
- EC50 [2]: > 53 µM (inactive)
- IC50 [3]: > 47.1 µM (inactive)

Reference: ChEMBL document CHEMBL1201862, “PubChem BioAssay data set” (2004)
